ChEMBL document CHEMBL3507680, “University of Dundee, Gates Library screen for HepG2 cell viability”

experiment: Human HepG2 cell viability assay in 384 well format; format: toxicity, cell-based; design: dose 125 nL, time 70.5 hour; cytotoxicity at 70.5 h: concentration not given beside the values; details: HepG2 cells, read-out: Inhibition

| SMILES | cytotoxicity at 70.5 h [%] |
| --- | --- |
| CCN(CC)C(=O)CSc1ncc[nH]1 | -8.92 |
| c1cnnc(N2CCCC(NCc3cccc4c3OCO4)C2)c1 (stereo not given) | 1.39 |
| Cc1cc(Oc2ccccc2C)nc(C2CCCN2)n1 (stereo not given) | 9.24 |
| O=C(CSc1nc2nncc-2c(O)n1-c1ccccc1)N1CCOCC1 | -10.6 |
| CC(C)Cc1nc(CN(C)c2cc(C(C)C)nc3ccnn23)no1 | -10.6 |
| CCCOC(=O)N1CCCC(c2nnc(CN3CCOCC3)n2C)C1 (stereo not given) | 2.16 |
| O=S(=O)(N1CCOCC1)N1CCCC1Cn1cccn1 (stereo not given) | -11.1 |
| COCCN1CCC2(CC1)CC1(CCN(S(C)(=O)=O)CC1)N(C)C2=O | -7.2 |
| Cc1nc2cc(CNC(=O)C3CC(=O)N(C4CCCC4)C3)ccc2n1C (stereo not given) | -7.58 |
| COC(=O)[C@@H]1Cc2ncn(C)c2CN1S(=O)(=O)c1cccs1 | -1.34 |
| CC(C)n1ccnc1CN1CCCN(C(=O)c2cscn2)CC1 | -2.53 |
| CS(=O)(=O)CCOCCNc1ccc(C(F)(F)F)cc1C#N | -3.49 |
| CCN(CC)CCNC(=O)CCc1c(C)nn(-c2cccc(Cl)c2)c1C | 0.617 |
| CCc1csc(C2CCCN(C(=O)c3c[nH]c(C)n3)C2)n1 (stereo not given) | -12 |
| CCc1noc(CCCC(=O)Nc2cc(C(F)(F)F)c[nH]c2=O)n1 | 0.169 |
| CN1CCC2(CC1)CN(C(=O)c1cccnc1)Cc1ccccc12 | 9.45 |
| COc1ccc(Br)cc1CC(=O)Nc1cc(C)n[nH]1 | 25.5 |
| Cc1ncccc1OCC(=O)N1CCN[C@H]2CS(=O)(=O)C[C@H]21 | -11.5 |
| Cc1c(Cl)cccc1NC(=O)Cn1cc(C(=O)O)ccc1=O | -10.5 |
| CN(C)Cc1nn(C)c2c1CN(C(=O)c1ccc[nH]1)C2 | -0.767 |
| CC(C)Oc1ncccc1CNC(=O)C1CCCN(C(=O)C2CC2)C1 (stereo not given) | 6.38 |
| CC(C)(C)C(=O)N1CC[C@H]2NC(=O)N(c3ccc(F)cc3)C(=O)[C@H]21 | -4.77 |

| SMILES | cytotoxicity at 70.5 h [%] |
| --- | --- |
| CCOCCCNC(=O)N(C)Cc1ccc(SC)c(OC)c1 | 1.54 |
| CC(C)n1cc(S(=O)(=O)N2CCCCC2)cn1 | 9.02 |
| O=S(=O)(C1CC1)N1CC[C@@H]2[C@@H]1CCN2Cc1cccs1 | -6.17 |
| CCN(CC)C(=O)[C@@H]1C[C@@H](NC(=O)c2cccn2C2CC2)CN1C | -7.5 |
| O=C(CCCn1cnc2ccccc2c1=O)Nc1nc[nH]n1 | 22.9 |
| Cn1cc(CN2CCc3nc(-c4ccccn4)nc(O)c3C2)cn1 | 22.4 |
| CC(C)=CCS(=O)(=O)Cc1noc(CC(C)C)n1 | -1.31 |
| CC(Cn1cccn1)NCc1csc(Cc2ccccc2)n1 (stereo not given) | 0.563 |
| O=C(c1ccon1)N1CCCC(n2cncn2)C1 (stereo not given) | -1.78 |
| Cc1cc(C2CCCN(Cc3ncc(C(C)C)o3)C2)n[nH]1 (stereo not given) | -6.54 |
| CNc1cccc(C2CCN(C(C)=O)CC2)n1 | -5.62 |
| Cc1nn(C)c(C)c1C(=O)NCc1cc(N(C)C)nc2ccccc12 | 27.3 |
| COc1ccc(CN2CCN(C(=O)N(C)C)[C@@H]3CS(=O)(=O)C[C@@H]32)cc1F | 4.21 |
| CN(Cc1nnc(C2CC2)n1C)C1CCN(Cc2ccncc2)C1 (stereo not given) | -2.37 |
| Cc1noc(C)c1C(=O)N1Cc2ncn(C)c2C(COCC(C)C)C1 (stereo not given) | -7 |
| Cc1ncc(CNC(=O)Nc2cc(C(F)(F)F)c[nH]c2=O)s1 | 0.0851 |
| Cc1ccc(S(=O)(=O)NCC2COCc3c(C)nnn3C2)cc1F (stereo not given) | 7.81 |
| O=C(CCCOc1ccccc1)N1CCCC1Cn1cccn1 (stereo not given) | -3.8 |
| Cc1n[nH]c(C)c1C1COCCN1C(=O)c1ccc(Cl)o1 (stereo not given) | 18 |
| Cc1cncc(C(=O)N2CCO[C@H]3[C@H](OCCN(C)C)CC[C@@H]32)c1 | -12.9 |
| CCC(=O)Nc1cccc(OCC(=O)N(C)Cc2cc(COC)[nH]n2)c1 | -4.96 |
| O=C(C1CCOC1)N1C[C@H]2CN(Cc3cccc(F)c3)C(=O)[C@H]2C1 (stereo not given in full) | -0.77 |

| SMILES | cytotoxicity at 70.5 h [%] |
| --- | --- |
| COCc1nnc2n1CCN(Cc1ccoc1)C2 | -3.74 |
| Cc1cnn(CC2CCCCN2C(=O)Cc2csc(C)n2)c1 (stereo not given) | -7.78 |
| Cc1nc(C(=O)N2CCN(C(=O)C3CCC3)[C@@H]3CS(=O)(=O)C[C@@H]32)cs1 | 2.83 |
| Fc1cnc(N2CC[C@@H](N3CCOCC3)[C@@H]2Cc2cccnc2)nc1 | 9.63 |
| Nc1nc(N2CCCCC2)ncc1C(=O)NCc1ccc(F)c(Cl)c1 | -20 |
| CCS(=O)(=O)CCN(C)Cc1cc(C)ccc1OC | -13.6 |
| CN1CC(=O)N(c2cccnc2)CC12CCN(C(=O)c1cccnc1)C2 (stereo not given) | 2.34 |
| CC(C)n1ccc(=O)nc1SC1CCN(c2ccccc2F)C1=O (stereo not given) | -1.73 |
| COC(=O)N1CCC(CNC(=O)C2CC2)CC1 | -18.1 |
| O=C(c1cscn1)N1C[C@H]2CCC[C@@]2(COCc2ccccn2)C1 | -6.34 |
| CCOCC1CN(Cc2nccs2)Cc2nn(CC3CC3)cc21 (stereo not given) | -9.99 |
| Cc1cc(CC(=O)N2CCc3cc(Br)sc3C2)n[nH]1 | 12.5 |
| Cc1nc(C2CCCN2CCCS(N)(=O)=O)no1 (stereo not given) | 17 |
| CCN(C)c1ncnc2c1CCN(Cc1csc(C)n1)CC2 | -12.4 |
| O=C(c1ccc(=O)[nH]c1)N1CCCC1c1nc2cc(F)ccc2[nH]1 (stereo not given) | -3.97 |
| Cc1cc(C)n(C2CN(CCC(=O)NC3CCCCC3)C2)n1 | -4.9 |
| COCCNC(=O)[C@@H]1C[C@H]2[C@H](CCN2c2cc(OC)ncn2)O1 | -10.5 |
| CC(C)c1nc(C2CCCN(C(=O)CCn3ccccc3=O)C2)no1 (stereo not given) | 22.5 |
| CCC1=N[C@@]2(CC[C@@H]3CN(S(=O)(=O)CC(C)C)C[C@@H]32)C(=O)N1CC | 1.37 |
| CCOc1cccc2c1OCC(C(=O)NS(=O)(=O)Cc1ccccc1)=C2 | 1.24 |
| Cc1ccc(NC2CCN(C(=O)CCCc3cccs3)CC2)nn1 | -2.88 |
| O=C(CCn1ccc(=O)[nH]c1=O)N1CCC(Oc2ccccn2)CC1 | -4.88 |

| SMILES | cytotoxicity at 70.5 h [%] |
| --- | --- |
| COc1ccccc1CN1C(=O)O[C@@H]2CN(c3nccs3)C[C@@H]21 | 1.12 |
| CN(C)c1cc(C2CCCN(S(=O)(=O)c3cn(C)cn3)C2)ccn1 (stereo not given) | -4.64 |
| Cc1noc(C)c1CN1CCOC2(CCCN(c3nncs3)C2)C1 (stereo not given) | -4.97 |
| CN(CCn1cccn1)S(=O)(=O)c1cccc(F)c1C#N | -9.35 |
| COC(=O)CCn1ccc(=O)c2ccccc21 | -5.76 |
| NC(=O)CSCCC(=O)NCC1CC1 | 3.32 |
| CC(C)(C)c1nc(NS(=O)(=O)c2ccc(F)cc2)no1 | -17.2 |
| COc1ccc(-c2cc(CN)ccc2F)c(OC)c1OC | 6.26 |
| N#Cc1cccc(OC23CCCN(CC2)C3)c1 (stereo not given) | 13.6 |
| O=C(NC1CC1)c1cc(NC(=O)N2CCSCC2)ccc1Cl | 15.9 |
| Cc1nn(C)c(C)c1C1CCCN1C(=O)c1ccnc(N(C)C)c1 (stereo not given) | -14.3 |
| CN(Cc1nccn1CC(F)(F)F)C(=O)c1ccc(F)c(F)c1 | -1.82 |
| Cc1ccc(C(=O)N2CC3(CCCCC3)c3cc(C(=O)O)ccc32)cn1 | 0.0823 |
| Cc1ccc(N2CC3(CCN(S(=O)(=O)C4CC4)C3)C2)nn1 | -5.86 |
| CC(=O)N(c1ccc(F)cc1)c1nc(CN2CCCC2C(C)C)cs1 (stereo not given) | 24.7 |
| O=c1ccc2c([nH]1)CCN(S(=O)(=O)c1ccc3c(c1)CCCC3)C2 | 3.55 |
| CCN(C)c1ncc2c(c1C(=O)O)CCN(C1CCOC1)C2 (stereo not given) | 0.989 |
| O=C1CC[C@@H]2[C@@H](CCN2S(=O)(=O)C2CC2)N1CC1CC1 | 18.2 |
| CCC(NC(=O)c1ccco1)c1nc(C(F)(F)F)cs1 (stereo not given) | -6.77 |
| COc1cccc(-c2nc(C)c(C(=O)N[C@@H](C)C(=O)O)s2)c1 | 4.53 |
| COc1ccc2c(c1)C(=O)N(C)C1(CCN(C(=O)OC(C)(C)C)CC1)N2 | 1.71 |
| CS(=O)(=O)c1ncc(CN2CCN3CCCC3C2)n1CC1CCCCC1 (stereo not given) | -6.4 |

| SMILES | cytotoxicity at 70.5 h [%] |
| --- | --- |
| CN(C)C(=O)NCc1ncn2c1CN(S(C)(=O)=O)CCC2 | -4.56 |
| CC(C)=CCN1CCNC(=O)C1CC(=O)N1CCc2sccc2C1 (stereo not given) | -3.67 |
| COCCN1C[C@H]2CN(C(=O)C3CC3)CCN2C1=O | 3.48 |
| Cc1cc(C)nc(N2CCN(C(=O)c3cc(Cl)c[nH]3)CC2)n1 | -9.1 |
| Cn1cc(N2CCN(c3ccc(C#N)cc3Br)CC2=O)cn1 | -4.85 |
| Cc1nc(C)n(CC2CCCN2Cc2cn3ccccc3n2)n1 (stereo not given) | -14.7 |
| Cc1ncsc1CN1CC[C@H]2OCC[C@@]2(C(=O)NCC2CC2)C1 | -3.48 |
| CCC(CO)N(Cc1cccnc1)C(=O)c1ccncc1F (stereo not given) | -9.31 |
| O=C([C@H]1CCCO1)N1CCN(Cc2cccnc2)c2ncccc2C1 | 0.581 |
| Cc1cc(C(=O)N2CCCN(c3nccs3)CC2)c(C)n1C(C)C | 29.5 |
| COCCN1CC(C(=O)N(C)Cc2csc(C)n2)CC1=O (stereo not given) | 9.18 |
| COc1ccc(C(=O)N(Cc2cnn(C)c2)C(C)C)cc1Br | -9.53 |
| Cc1cccc(C(=O)N2CCCC[C@]3(C)NC(=O)CCC[C@H]23)n1 | -8.97 |
| Cc1cccc(C(=O)N2CCC(Cc3cnc4[nH]ccc4c3)CC2)n1 | -7.84 |
| CN(C)c1ncc2c(O)nc(C3CCNCC3)cc2n1 | -6.95 |
| COC(=O)c1cc(OC)c(OC)cc1NCc1c(C)noc1C | -2.42 |
| O=C(c1ccnnc1)N1CC[C@H]2C[C@H](c3ccncn3)O[C@@H]2C1 | 5.3 |
| Cn1nnn(-c2ccc(NS(=O)(=O)c3ccc(F)c(Cl)c3)cc2)c1=O | -2.9 |
| COc1ccc(CN2C[C@H](N3CCCC3=O)[C@@H]3OCCC[C@@H]32)cc1 | -7 |
| O=C(c1ccc(F)cc1)N1CC[C@H]2[C@H]1CCN2CC1CC1 | -17.1 |
| COCCNC(=O)[C@@H]1C[C@@H]2CCN(c3ncccn3)C[C@H]2O1 | 24.2 |
| CN(Cc1ccco1)C[C@H]1OC[C@@H]2CCN(Cc3ccsc3)C[C@@H]21 | -7.38 |
